# Laboratory results published in patent publication US20020164581A1 (priority 2001, published 2002).
# Where two headings read alike, the source gives them in different places.
# What was measured:
# [1] = tested on: antioxidant enzymes (SOD, CAT, GPX, GR) in bAECs; assay: Antioxidant enzyme (AOE) activities in cell lysates, all four enzymes together; format: cell-based, bovine; settings: for AOE change, SERM alone: pretreatment with 1 μM alone
# Procedure: […] The cells were then lysed on ice by sonication at a setting of 50 mW, with 3×15 set cycles using a Cole-Parmer Ultrasonic Homogenizer (Chicago, Ill.). Protein concentrations in the samples were determined by the Bradford method with bovine serum albumin as a standard (Bradford, Anal. Biochem. 72:248-254, 1976).
# SOD activity was determined by a method based on the ability of SOD to suppress epinephrine auto-oxidation (Misra and Fridovich, J.Biol. Chem. 247:3170-3175, 1972). One unit of SOD activity is defined as the amount of protein that inhibits the oxidation of epinephrine by 50%. Briefly, 100 μl of 10×-diluted cell homogenate (about 10 μg protein) was added to 900 μl of carbonate buffer (0.1 M NaHCO3, 0.1 M Na2CO3, 0.1 mM EDTA, pH 10.2) containing 0.7 mM of epinephrine. The absorbency of the mixture was measured for 4 minutes at 480 nm using a Hitachi U-2000 spectrophotometer (Hitachi, San Jose, Calif.).
# CAT activity was determined by the method of Aebi (Methods Enzymol. 105:121,-126, 1984). One unit of CAT activity is defined as the amount of protein that degrades 1 μmole of H2O2 per minute. Initially, 10 μl of absolute ethanol was mixed with 100 μl of cell homogenates and pre-incubated at 4° C. for 30 minutes. Following the addition of 10 μl Triton X-100 (reduced form), a 100 μl aliquot (about 100 μg of protein) of the resultant mixture was next added to 500 μl of hydrogen peroxide (66 mM) and 400 μl of phosphate buffer (0.1 M NaH2PO4, 0.1 M Na2HPO4, 0.1 mM EDTA, pH 7.0). The absorbency of the mixture was monitored for one minute at 240 nm spectrophotometrically. The molar extinction coefficient of 43.6 M/cm was used to determine the catalase activity.
# GPX activity was determined by a modified method of Flohe and Gunzler (Methods Enzymol. 105:114-121, 1984). One unit of GPX activity is defined as the amount of protein that oxidizes 1 nmole of β-NADPH per minute. In this assay, 100 μl of cell homogenate (about 100 μg protein) was added to 800 μl of phosphate buffer (0.1 M NaH2PO4, 0.1 M Na2HPO4, 0.1 mM EDTA, pH 7.0) containing 12.5 mM glutathione (reduced form, GSH), 0.2 mM β-nicotinamide adenine dinucleotide phosphate (reduced form, β-NADPH), and 0.34 U glutathione reductase. This mixture was pre-incubated at 37 C for 10 minutes and then 100 μl of 12 mM t-butyl hydroperoxide was added. The absorbency of the mixture was determined at 340 nm for 3 minutes. The molar extinction coefficient of 6.22 mM/cm was used to determine the activity of GPX.
# GR activity was determined by a modified method of Carlberg and Mannervik (Methods Enzymol. 11 3:484-490, 1985). One unit of GR activity is defined as the amount of protein that oxidizes 1 nmole of β-NADPH per minute. Briefly, 50 μl of 2 mM β-NADPH in 10 mM Tris buffer (pH 7.0) was added to a cuvette containing 50 μl of 20 mM glutathione (oxidized ofrm, GSSG) in phosphate buffer (0.1 M NaH2PO4, 0.1 M Na2HPO4, 0.1 mM EDTA, pH 7.0) and 800 μl of phosphate buffer. Following the addition of cell homogenate (about 100 μg protein/100 μl) the final mixture was measured at 340 nm for 3 minutes. The molar extinction coefficient of 6.22 mM/cm was used to determine the activity of […].
# estrogen receptor = settings: cited from earlier work
# LDL = settings: 5-50 μM; oxidation by copper ions, monocytes, or endothelial cells; cited from earlier work
# [2] = tested on: endothelial nitric oxide synthase; settings: endothelial cells; cited from earlier work
# cardiomyocytes = settings: cited from earlier work
# [3] = tested on: bovine aortic endothelial cells (bAECs); settings: for protection against paraquat-mediated cytotoxicity, SERM alone: 10 nM-1 μM, 24 h pretreatment (FIG. 4)
# Procedure: Primary cultures of bAECs were established from five female beef cattle (ranging in age from 1 to 2 years old) according to the method of Fenselau and Mello (Cancer Res. 36:3269-3273, 1976). Pooled cells were routinely maintained under humidified air (5% CO2) at 37° C. in Dulbecco's modified medium supplemented with 10% fetal bovine serum (FBS). Cells from the second to the fifth passages were used in these studies.
# In the studies in which male and female bAECs were compared, batches of bAECs were independently established from 5 female and 4 male beef cattle (ranging in age from 1 to 2 years old) according to the method of Fenselau and Mello (Cancer Res. 36:3269-3273, 1976). Otherwise, the cells were treated and assessed as described in the paragraph above.
# Prior to E2 pretreatment, cells were grown in phenol red-free DMEM supplemented with 10% dextran/charcoal-stripped FBS for at least 1 passage (3-4 days). Phenol red-free Dulbecco's modified medium was used to avoid potential estrogenic interference. Serum steroid deprivation was conducted according to the conditions described by Yeh et al. (Proc. Natl. Acad. Sci. USA 95:5527-5532, 1998). The E2 level in the stripped serum was assayed using an [^125I] 17β-estradiol radioimmunoassay kit (TKE21, Diagnostic Products Corporation, Los Angeles, Calif.). […] The cells grown in E2-free environments were plated onto Falcon 24-well Primariae™ plates at a density of 5×10^4 cells/well. E2 in dimethylsulfoxide (DMSO) was added to each well at final concentrations ranging from 1 nM to 10 μM 3 hours after plating, and the cells were then incubated for 24 hours (a duration commonly used for the studies of the genomic effects of E2) at 37° C. Control cells were treated with a corresponding amount of DMSO (a final concentration 0.05%).
# Prior to oxidative challenge, E2-containing media was removed, and the cells were rinsed with PBS twice and re-fed with serum-free fresh medium. Subsequently, paraquat was added to the cells at the indicated doses (0.1-2.0 mM) for 3 hours. The oxidative challenge was terminated by aspiration of the oxidant-containing medium and quickly rinsing the cells twice with PBS. The cells were allowed to recover for 48 hours in medium supplemented with 10% regular FBS to exclude the possibility that different concentrations of E2 interfere with the cellular recovery processes.
# Cell survival after oxidative challenge was assessed with a 3-(4,5-dimethylthiazol-2-yl) 2,5 diphenyltetrazolium bromide (MTT) assay in which the mitochondrial dehydrogenase activity of viable cells reduces MTT to a blue formazan product (Carmichael et al. Cancer Res. 47:936-942, 1987). Our prior conditions were employed (Si et al., Endocrine in press, 2001). Briefly, cells were treated with 1/10 volume of MTT solution (5 mg/ml in PBS) and incubated at 37° C. for 2 hours. The supernatant was then removed, and 600 μl of lysis buffer (50% dimethyl formamide, 5% sodium dodecyl sulphate, 0.35 M acetic acid, 50 mM HCl) was added to each well. Following cell lysis, the absorbency was measured at 570 nm and used as an indicator of relative cell survival. The surviving fraction was calculated as compared to the cells without paraquat challenge.
# Two experimental groups were created. In the first group, E2 was added only during the 24-hour pretreatment period. In the second group, E2 was added only during the 3-hour paraquat exposure.
molecule,measurement,setting,value
C[C@@H]1C[C@@H]([C@H](O)CC2CC(=O)NC(=O)C2)C(=O)[C@@H](C)C1 [cyclohexamide],effect on AOE induction by E2,[1]; included during the E2 pretreatment period,abolished
CCCCN(C)C(=O)CCCCCCCCCC[C@@H]1Cc2cc(O)ccc2[C@H]2CC[C@]3(C)[C@@H](O)CC[C@H]3[C@H]12 [ICI164384],effect on the beneficial effect of E2,estrogen receptor,reverses the beneficial effect of E2
C[C@]12CC[C@H]3[C@@H](CCC4=CC(=O)CC[C@@]43C)[C@@H]1CC[C@@H]2O [testosterone],effect on LDL oxidation,LDL,has no effect
CC/C(=C(\c1ccccc1)c1ccc(OCCN(C)C)cc1)c1ccccc1 [tamoxifen],effect on E2's induction of nitric oxide synthase,[2],interferes with E2's ability to induce nitric oxide synthase
same,effect on E2's protection in cardiomyocytes,cardiomyocytes,abolishes this protective effect
CC/C(=C(/CC)c1ccc(O)cc1)c1ccc(O)cc1 [diethylstilbestrol],protection against subsequent oxidative challenge,[3],acquired significant protection against subsequent oxidative challenge
"O=C(c1ccc(OCCN2CCCCC2)cc1)c1c(-c2ccc(O)cc2)sc2cc(O)ccc12 [Ral, raloxifene]",protection against subsequent oxidative challenge,[3],neither positively nor negatively influenced oxidative resistance
same,"protection against paraquat-mediated cytotoxicity, SERM alone",[3],failed to confer detectable protection
same,effect on E2-induced oxidative protection,[3]; 1 μM (highest tested dose) added with 1 nM E2 during pretreatment,only a slight inhibitory effect on E2 protection
same,effect on E2-induced oxidative protection,[3]; 1-100 nM added with 1 nM E2 during pretreatment,did not affect E2-induced oxidative protection
same,"AOE change, SERM alone",[1],no detectable change in AOE
C[C@]12CC[C@@H]3c4ccc(O)cc4CC[C@H]3[C@@H]1C[C@@H](O)[C@@H]2O [estriol],effect on LDL oxidation,LDL,inhibit LDL oxidation
4-hydroxytamoxifen [4-OH-Tam],protection against subsequent oxidative challenge,[3],neither positively nor negatively influenced oxidative resistance
same,effect on E2-induced oxidative protection,[3]; 10 nM-1 μM added simultaneously with 1 nM E2 during pretreatment,significantly blocked estrogen-induced oxidative protection
same,"protection against paraquat-mediated cytotoxicity, SERM alone",[3],failed to confer detectable protection
same,minimal dose to suppress E2 protection,"[3]; co-treatment with 1 nM E2, endothelial cells",10 nM
same,effect on E2's capability to evoke AOE activities,[1]; 1 μM SERM included during 1 nM E2 pretreatment (FIG. 6),significantly decreased estrogen's capability to evoke AOE activities
same,"AOE change, SERM alone",[1],no detectable change in AOE
COc1ccc2c(c1)CCC(c1ccccc1)=C2c1ccc(OCCN2CCCC2)cc1 [nafoxidine],protection against subsequent oxidative challenge,[3],neither positively nor negatively influenced oxidative resistance
"C[n+]1ccc(-c2cc[n+](C)cc2)cc1.[Cl-].[Cl-] [paraquat, 1,1′-dimethyl-4,4′-bipyridinium dichloride]",cell killing by paraquat,[3]; exposure of bAECs 3 h at 37 C,dose-dependent cell killing
same,LD50 of paraquat,[3]; male and female bAECs (both genders),0.1 to 1.0 mM
same,LD50 of paraquat toxicity,[3]; untreated control cells (no E2),about 0.5 mM
